In general, inhibition refers to the drop in the measured response relative to a control, in per cent. As usually defined, the logP is the decadic logarithm of the partition coefficient of the neutral form, usually between octanol and water. Read a low logP as lower lipophilicity.

The source of these data is US20130310347A1, “MULTI-MODALITY MOLECULAR IMAGING HIGH-THROUGHPUT ASSAY FOR IDENTIFYING HEAT SHOCK PROTEIN 90 (HSP90) INHIBITORS” (The Board of Trustees of the Leland Stanford Junior …, priority 2012, published 2013).

One data set has as its target purified Hsp90α (Homo sapiens, UniProt P07900). The data set can be described thus: In vitro competitive binding with 3H-17AAG. The settings on record: CP9 200 μM pre-incubation; p<0.05. Here is the method:
(§1) FIG. 5C is a graph illustrating the competitive in vitro binding of CP9 with ^3H-17AAG to Hsp90(α/β). Purified Hsp90(α/β) was pre-incubated with CP9 (200 μM) or cold 17-AAG (50 μM) prior to incubation with ^3H-17AAG. The reaction complexes were then eluted through a desalting column to remove any unbound ^3H-17AAG prior to scintillation counting for the amount of ^3H-17AAG bound to Hsp90(α/β). Columns incubated with ^3H-17AAG alone served as negative controls. Results are expressed as means of triplicates±S.E.M. *, p<5×10^−6 vs. carrier control-treated cells.
(§2) To confirm the direct binding of CP9 to Hsp90(α/β), an in vitro competitive binding assay using purified Hsp90α and Hsp90β was performed using radiolabeled Hsp90 inhibitor ^3H-17AAG. Hsp90 proteins were pre-bound with CP9 or cold 17-AAG as a control prior to incubation with ^3H-17AAG. Unbound ^3H-17AAG was removed and the amount of ^3H-17AAG bound to the Hsp90 proteins was determined. […] To confirm cellular Hsp90 as the target of CP9, uptake studies in intact HT29 cells were performed by monitoring the competitive binding of ^3H-17AAG. […]
(§3) To verify the binding of CP9 to Hsp90α and Hsp90β in vitro, a displacement assay using ^3H-17AAG was performed. […] The amount of ^3H-17AAG that remained bound to Hsp90α or Hsp9013 was determined by scintillation counting.

A further data set concerns the target purified Hsp90β (Homo sapiens, UniProt P08238). Description: In vitro competitive binding with 3H-17AAG. The settings on record: CP9 200 μM pre-incubation. As to the method:
as §1, §2, §3

For data set [1], the system named is 293T cells stably expressing split RL reporters. The data set can be described thus: Cell Titer-Blue cell proliferation assay. In kind it is cell-based. The settings on record: Homo sapiens, HEK-293T. Here is the method:
Inhibition of cell proliferation at 20 μM was determined by cell-titer blue assays and toxic compounds were eliminated. The IC50 values for inhibition of bioluminescence signals (BLI) in cells stably expressing Hsp90(α/β)/p23 split RL reporters and the inhibition of cell proliferation for the top 19 compounds are shown in Table 1, Example 15, and their structures are shown in FIGS. 1A-1D.
Baseline complemented RL activities were determined 90 mins after addition of 20 μl of ENDUREN® (10 μM final concentration) (Promega, Madison, Wis.) using the Analyst GT (Molecular Device, Sunnyvale, Calif.), with an acquisition time of 0.2 sec per well. Cells were incubated with compounds for 24 h prior to re-determination of complemented RL activities, and normalized to the mean RL activities of untreated cells in columns 1-2. Another small molecule chemical library with 30,176 compounds (SPECS, Wakefield, R.I.) was also used in screening modulators of Hsp90(α/β)/p23 inhibitors (at 8.3 μM, one drug per well for initial screening). For dose response/confirmation assay the compounds were tested in duplicate in an 8 point (0.156-20 μM) dose response assay for RL activities for both Hps90(α/β)/p23 interactions. The effect of each compound on cell proliferation at 20 μM was determined using Cell Titer-Blue assay in duplicate wells. […]

The test system of data set [2] is 1975 lung cancer, 2008 ovarian cancer and HT29 colon cancer cells. Description: 3H-FDG cell uptake (glucose metabolism). In kind it is cell-based. The settings on record: 24 h post treatment. As to the method: FIG. 6B is a graph illustrating the effect of CP9 on glucose metabolism determined in 1975 lung cancer, 2008 ovarian cancer and HT29 colon cancer cells by ^3H-FDG cell uptake studies 24 h post treatment. Normal MEFs were used as a control. Results were expressed as mean counts/μg protein/initial dose±S.E.M. *, p<0.05 vs. carrier control treated cells.
Inhibition of glucose metabolism by CP9 in cell culture was monitored by cell uptake studies with ^3H-fluoro-deoxyglucose (^3H-FDG) as described in Dandekar et al. ((2007) J. Nucl. Med. 48: 602-607) as shown in FIG. 6B. PU-H71 was used as a positive control.
To determine the downstream effects of lead compounds on glucose metabolism, 1.5×10^5 293T, 1975 and 2008 and MEFs cells plated in 24-well plate for 24 h, prior to treatment with different concentrations of CP9 for 24 or 48 h and subsequent incubation with 1 μCi of ^3H-FDG in 500 μl of medium for 1 h at 37° C. Cells treated with 2.5 μM of PU-H71 served as a positive control. The total counts in each sample were normalized to that of the dose added to each well and to the amount of protein, and expressed as mean counts/dose/μg protein±S.E.M. Likewise, the effect of CP9 on cell proliferation was determined using 1 μCi of ^3H-FLT per well after 2 h of incubation at 37° C.

Data set [3] in a line: logP value (partition coefficient). Type of data set: physicochemical.
A short description of data set [4]: 18F-FDG uptake in the brains of mice. In kind it is in vivo. The settings on record: CP9 treated mice; P>0.05 vs carrier. Here is the method:
The ^18F-FDG uptake in the brains of mice using CT images to delineate boundaries was also analyzed. Relative to day 0, the maximum % ID/g of ^18F-FDG uptake was 114±11% in mice treated with carrier and 99±4% in mice treated with CP9. There was no statistical difference between the two groups (P>0.05).

purified Hsp90β, sequence (P08238 whole entry): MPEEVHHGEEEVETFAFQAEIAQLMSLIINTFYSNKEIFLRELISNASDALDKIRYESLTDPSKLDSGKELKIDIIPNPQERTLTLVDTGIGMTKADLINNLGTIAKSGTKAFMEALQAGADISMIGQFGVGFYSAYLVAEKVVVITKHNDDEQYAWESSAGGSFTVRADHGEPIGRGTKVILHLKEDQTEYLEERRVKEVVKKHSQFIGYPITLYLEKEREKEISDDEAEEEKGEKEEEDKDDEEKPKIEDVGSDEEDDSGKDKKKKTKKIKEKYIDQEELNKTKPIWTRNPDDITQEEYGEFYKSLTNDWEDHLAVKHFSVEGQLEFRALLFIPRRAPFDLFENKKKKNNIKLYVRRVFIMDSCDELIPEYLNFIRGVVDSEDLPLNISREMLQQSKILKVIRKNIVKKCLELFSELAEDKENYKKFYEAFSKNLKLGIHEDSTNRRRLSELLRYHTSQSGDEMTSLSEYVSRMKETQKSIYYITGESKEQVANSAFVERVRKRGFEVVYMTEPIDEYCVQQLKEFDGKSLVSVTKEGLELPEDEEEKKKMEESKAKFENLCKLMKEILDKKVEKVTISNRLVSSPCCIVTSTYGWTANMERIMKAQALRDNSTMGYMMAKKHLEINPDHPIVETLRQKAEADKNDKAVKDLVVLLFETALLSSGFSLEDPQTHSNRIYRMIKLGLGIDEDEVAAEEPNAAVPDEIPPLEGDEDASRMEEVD

Take `Cc1cc(NC(=O)CSc2nc(-c3cccs3)cc(C(F)(F)F)n2)no1` [CP9, N-(5-methylisoxazol-3-yl)-2-(4-(thiophen-2-yl)-6-(trifluoromethyl)pyrimidin-2-ylthio)acetamide]: at purified Hsp90α, the “reduction of binding of 3H-17AAG to purified Hsp90α” value was “about 50%”. Besides, the “binding of 3H-17AAG to Hsp90β” value at purified Hsp90β is given as “did not significantly affect”. The inhibition at 20 µM in data set [1] was 29%. Further, in data set [2], the “3H-FDG uptake in the cancer cells” value is reported as “decreased”. For the same compound, the logP in data set [3] was 4.1. Further, the “maximum % ID/g of 18F-FDG uptake in brain relative to day 0” value in data set [4] came out at 99±4%.
